From article PMC10892019, “Molecular Characterization of Plant Volatile Compound Interactions with Cnaphalocrocis medinalis Odorant-Binding Proteins” (Plants, 2024)
Like-named read-outs stand apart in the source and are kept apart here.

Experiments:
SaveOBP9 = biological target: SaveOBP9; set-up: method as in PMID 33172024; conditions: SaveOBP9, strong binding force; cited from earlier work
CmedOBP6 = CmedOBP6 (Cnaphalocrocis medinalis, UniProt A0A0U3C2E7); assay: Fluorescence competitive binding assay (1-NPN) with CmedOBP6
Sequence of CmedOBP6 (A0A0U3C2E7 entry or part of it): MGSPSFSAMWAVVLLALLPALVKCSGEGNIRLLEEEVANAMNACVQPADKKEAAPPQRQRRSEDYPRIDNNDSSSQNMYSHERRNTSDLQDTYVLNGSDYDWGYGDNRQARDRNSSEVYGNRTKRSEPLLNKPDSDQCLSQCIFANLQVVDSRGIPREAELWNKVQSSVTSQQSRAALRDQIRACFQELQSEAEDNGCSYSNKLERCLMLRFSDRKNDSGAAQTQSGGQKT
Description: (§1) The method for fluorescence competition binding was the same as that described by Zeng et al. (2018). The fluorescent probe N-phenyl-1-naphthylamine (1-NPN) (Sangon Biotech, Shanghai, China) and phenylacetaldehyde, benzyl acetate, 1-heptanol, and hexanal (Aladdin, Shanghai, China) were diluted to 100 mM stocks in chromatographic-grade methanol and stored at −20 °C. Working solutions of 1 mM 1-NPN and each odorant were made up in methanol. Each CmedOBP solution was diluted in 1 mM Tris-HCl buffer to a final concentration of 2 μM.
(§2) The RF5301PC fluorescence spectrophotometer (Shimadzu, Japan) was operated at an excitation wavelength of 337 nm and an emission wavelength of 405 nm (with excitation and emission slits of 5 nm and 10 nm, respectively). For each protein solution, 2 mL of diluted protein was added to the quartz cuvette, then 4 μL aliquots of 1-NPN solution were added at 2 min intervals to bring the final concentration of the probe to 2 μM. After the fluorescence intensity was stable, the maximum fluorescence value was recorded. The 1 mM volatile samples dissolved in methanol were then added to a final concentration of 20 μM. After 2 min, when the fluorescence value no longer fluctuated, the maximum fluorescence value was recorded. Each odor sample was tested in three technical replicates.
(§3) The binding ability of each protein to each odorant was determined by plotting the fluorescence intensity against the ligand concentration. Trend lines were linearized with the Scatchard method, then used to calculate the half-maximal inhibition concentration (IC50) of the ligand. The competition constant was calculated from the IC50 value as follows: Ki = [IC50]/(1 + [1-NPN]/K1-NPN) where 1-NPN is the concentration of free 1-NPN, and K1-NPN is the dissociation constant of the CmedOBP/[1-NPN] complex. The dissociation constant (Ki) was inversely correlated with the binding force between the protein and the odorant. At Ki > 50 μmol/L, the protein was considered to have no binding force with the volatile; at 20 μmol/L < Ki < 50 μmol/L, the protein was considered to have a weak binding force with the volatile; and at 0 μmol/L < Ki < 20 μmol/L, the protein was considered to have a strong binding force with the analyzed volatile.

CmedOBP1 = CmedOBP1 (Cnaphalocrocis medinalis, UniProt H9XFD2); assay: Fluorescence competitive binding assay (1-NPN) with CmedOBP1
Sequence of CmedOBP1 (H9XFD2 entry or part of it): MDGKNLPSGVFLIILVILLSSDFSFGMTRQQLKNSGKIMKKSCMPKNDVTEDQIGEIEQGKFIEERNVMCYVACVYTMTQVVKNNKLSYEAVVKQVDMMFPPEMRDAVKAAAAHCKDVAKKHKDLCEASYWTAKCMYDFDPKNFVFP
Description: as §1, §2, §3

CmedGOBP2 = CmedGOBP2 (Cnaphalocrocis medinalis, UniProt H9XFD1); assay: Fluorescence competitive binding assay (1-NPN) with CmedGOBP2
Sequence of CmedGOBP2 (H9XFD1 entry or part of it): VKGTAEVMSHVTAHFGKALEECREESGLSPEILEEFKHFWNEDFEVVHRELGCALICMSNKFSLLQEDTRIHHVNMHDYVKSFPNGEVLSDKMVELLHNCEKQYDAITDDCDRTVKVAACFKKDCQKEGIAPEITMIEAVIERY
Description: as §1, §2, §3

CmedGOBP1 = CmedGOBP1 (Cnaphalocrocis medinalis, UniProt H9XFD0); assay: Fluorescence competitive binding assay (1-NPN) with CmedGOBP1
Sequence of CmedGOBP1 (H9XFD0 entry or part of it): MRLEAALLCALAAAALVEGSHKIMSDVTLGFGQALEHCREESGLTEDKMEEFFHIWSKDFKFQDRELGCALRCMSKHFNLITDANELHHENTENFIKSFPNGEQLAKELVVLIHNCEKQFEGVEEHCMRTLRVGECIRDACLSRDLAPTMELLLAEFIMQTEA
Description: as §1, §2, §3

CmedPBP2 = CmedPBP2 (Cnaphalocrocis medinalis, UniProt M4YHW5); assay: Fluorescence competitive binding assay (1-NPN) with CmedPBP2
Sequence of CmedPBP2 (M4YHW5 entry or part of it): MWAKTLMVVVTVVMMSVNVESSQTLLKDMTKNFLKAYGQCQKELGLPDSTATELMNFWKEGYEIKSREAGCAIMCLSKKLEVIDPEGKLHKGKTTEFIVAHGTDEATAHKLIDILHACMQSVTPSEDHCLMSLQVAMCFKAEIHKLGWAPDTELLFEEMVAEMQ
Description: as §1, §2, §3

CmedOBP15 = CmedOBP15 (Cnaphalocrocis medinalis, UniProt A0A0U3C6L3); assay: Fluorescence competitive binding assay (1-NPN) with CmedOBP15
Sequence of CmedOBP15 (A0A0U3C6L3 entry or part of it): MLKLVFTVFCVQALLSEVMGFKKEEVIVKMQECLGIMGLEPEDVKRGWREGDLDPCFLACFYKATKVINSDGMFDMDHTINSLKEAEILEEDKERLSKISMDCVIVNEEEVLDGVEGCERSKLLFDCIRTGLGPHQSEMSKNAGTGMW
Description: as §1, §2, §3

CmedOBP26 = CmedOBP26 (Cnaphalocrocis medinalis, UniProt A0A1P8SKA7); assay: Fluorescence competitive binding assay (1-NPN) with CmedOBP26
Sequence of CmedOBP26 (A0A1P8SKA7 entry or part of it): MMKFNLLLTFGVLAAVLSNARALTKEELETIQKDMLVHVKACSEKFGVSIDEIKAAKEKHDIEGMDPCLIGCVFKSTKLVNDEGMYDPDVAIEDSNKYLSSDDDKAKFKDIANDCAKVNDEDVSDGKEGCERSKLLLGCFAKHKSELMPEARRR
Description: as §1, §2, §3

[1] = CmedOBP6 2 μM, 1-NPN probe 2 μM, calculated from IC50, read-out: Ki
[2] = CmedOBP6 2 μM, 1-NPN probe 2 μM, read-out: IC50
[3] = CmedOBP1 2 μM, 1-NPN probe 2 μM, calculated from IC50, read-out: Ki
[4] = CmedOBP1 2 μM, 1-NPN probe 2 μM, read-out: IC50
[5] = CmedGOBP2 2 μM, 1-NPN probe 2 μM, calculated from IC50, read-out: Ki
[6] = CmedGOBP2 2 μM, 1-NPN probe 2 μM, read-out: IC50
[7] = CmedGOBP1 2 μM, 1-NPN probe 2 μM, calculated from IC50, read-out: Ki
[8] = CmedGOBP1 2 μM, 1-NPN probe 2 μM, read-out: IC50
[9] = CmedPBP2 2 μM, 1-NPN probe 2 μM, calculated from IC50, read-out: Ki
[10] = CmedPBP2 2 μM, 1-NPN probe 2 μM, read-out: IC50
[11] = CmedOBP15 2 μM, 1-NPN probe 2 μM, calculated from IC50, read-out: Ki
[12] = CmedOBP15 2 μM, 1-NPN probe 2 μM, read-out: IC50
[13] = CmedOBP26 2 μM, 1-NPN probe 2 μM, calculated from IC50, read-out: Ki
[14] = CmedOBP26 2 μM, 1-NPN probe 2 μM, read-out: IC50
[15] = Ki, CmedOBP1 2 μM, 1-NPN probe 2 μM, calculated from IC50
[16] = Ki, CmedOBP15 2 μM, 1-NPN probe 2 μM, calculated from IC50

CCCCCCCCCC=O [decanal]
Ki (SaveOBP9): < 10 µM

CCCCCCCC=O [octanal]
Ki (SaveOBP9): < 10 µM

CCCCCCCCCCCCCC [tetradecane]
Ki (SaveOBP9): < 10 µM

CC(=O)OCc1ccccc1 [Benzyl Acetate, benzyl acetate]
Ki (CmedOBP6; [1]): > 50 µM | IC50 (CmedOBP6; [2]): 558 µM | Ki (CmedOBP1; [3]): 31.5 µM | IC50 (CmedOBP1; [4]): 179 µM | Ki (CmedGOBP2; [5]): > 50 µM | IC50 (CmedGOBP2; [6]): 454 µM | Ki (CmedGOBP1; [7]): > 50 µM | IC50 (CmedGOBP1; [8]): 223 µM | Ki (CmedPBP2; [9]): > 50 µM | IC50 (CmedPBP2; [10]): 235 µM | Ki (CmedOBP15; [11]): 13.6 µM | IC50 (CmedOBP15; [12]): 34.4 µM | Ki (CmedOBP15; CmedOBP15, read-out: Ki value): < 20 µM | Ki (CmedOBP26; [13]): > 50 µM | IC50 (CmedOBP26; [14]): 96.1 µM

CCCCCCCCCCCCCCCC [hexadecane]
Ki (SaveOBP9): < 10 µM

CCCCCCCO [1-Heptanol, 1-heptanol]
Ki (CmedOBP6; [1]): > 50 µM | IC50 (CmedOBP6; [2]): 624 µM | Ki (CmedOBP1; [3]): 12 µM | IC50 (CmedOBP1; [4]): 68.1 µM | Ki (CmedOBP1; CmedOBP1, read-out: Ki value): < 20 µM | Ki (CmedGOBP2; [5]): > 50 µM | IC50 (CmedGOBP2; [6]): 99.7 µM | Ki (CmedGOBP1; [7]): > 50 µM | IC50 (CmedGOBP1; [8]): 219 µM | Ki (CmedPBP2; [9]): > 50 µM | IC50 (CmedPBP2; [10]): 224 µM | Ki (CmedOBP15; [11]): > 50 µM | IC50 (CmedOBP15; [12]): 290 µM | Ki (CmedOBP26; [13]): 31.9 µM | IC50 (CmedOBP26; [14]): 52.3 µM | Ki (CmedOBP26; CmedOBP26, read-out: Ki value): 20 to 50 µM

O=CCc1ccccc1 [Phenylacetaldehyde, phenylacetaldehyde]
IC50 (CmedOBP6): 357 µM | Ki (CmedOBP6): > 50 µM | IC50 (CmedOBP1): 77.5 µM | Ki (CmedOBP1; Ki value, CmedOBP1): < 20 µM | Ki (CmedOBP1; [15]): 13.7 µM | IC50 (CmedGOBP2): 123 µM | Ki (CmedGOBP2): > 50 µM | IC50 (CmedGOBP1): 162 µM | Ki (CmedGOBP1): > 50 µM | IC50 (CmedPBP2): 85.8 µM | Ki (CmedPBP2): > 50 µM | IC50 (CmedOBP15): 44.3 µM | Ki (CmedOBP15; Ki value, CmedOBP15): < 20 µM | Ki (CmedOBP15; [16]): 17.5 µM | IC50 (CmedOBP26): 458 µM | Ki (CmedOBP26): > 50 µM

CCCCCC=O [Hexanal, hexanal]
IC50 (CmedOBP6): 383 µM | Ki (CmedOBP6): > 50 µM | IC50 (CmedOBP1): 99.2 µM | Ki (CmedOBP1; Ki value, CmedOBP1): < 20 µM | Ki (CmedOBP1; [15]): 17.5 µM | IC50 (CmedGOBP2): 622 µM | Ki (CmedGOBP2): > 50 µM | IC50 (CmedGOBP1): 249 µM | Ki (CmedGOBP1): > 50 µM | IC50 (CmedPBP2): 155 µM | Ki (CmedPBP2): > 50 µM | IC50 (CmedOBP15): 441 µM | Ki (CmedOBP15; [16]): > 50 µM | IC50 (CmedOBP26): 200 µM | Ki (CmedOBP26): > 50 µM
